The text below walks through data of patent US20170275270A1, “BENZYL SUBSTITUTED INDAZOLES” (Bayer Pharma Aktiengesellschaft, priority 2014, published 2017).

Assay [1] has as its target T1, catalytic domain of human Bub1 (amino acids 704-1085) (Homo sapiens, UniProt O43683).
T1 construct: catalytic domain of human Bub1 (amino acids 704-1085); His6 (N); made in house; host or cells: Hi5 insect cells
Put plainly: Bub1 kinase assay (TR-FRET). It is filed as biochemical. The method in brief:
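Compounds from 2 mM DMSO stocks, serially diluted 1:3.4, incubated with enzyme at 22° C for 60 min. Stopped with EDTA, then 1 h with streptavidin-XL665, anti-phosphoserine antibody and Eu-labelled anti-mouse IgG. Phosphorylated biotin-peptide read by TR-FRET; IC50 by 4-parameter logistic fit.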
(In general: In TR-FRET formats the signal depends on donor and acceptor labels being close together.)

The test system of the next assay is HeLa. The experiment in a line: Proliferation assay (HeLa cell line).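 Also: crystal violet staining of cell number, scaled between a plate stained before dosing (0%) and cells left untreated (100%), compounds tested at 0.001-10 µM, IC50 via 4-parameter fit.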 To be noted: Homo sapiens, 96 h, read-out: Biological Assay 2: Proliferation assay (HeLa cell line) median IC50.
In assay [2] the test system is HeLa human cervical tumor cells. The experiment in a line: Proliferation assay (HeLa+Paclitaxel).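 Also: compounds at 0.001-10 µM added 4 h after paclitaxel, 92 h exposure, absorbance normalized to zero-point plate (0%) and untreated cells (100%), IC50 from 4-parameter fit.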 To be noted: read-out: Biological Assay 3: HeLa + Paclitaxel IC50, 3 nM paclitaxel, crystal violet.
The mark [3] stands for this setting: Biological Assay 1: Bub1 kinase assay median IC50, 10 μM ATP.
Setting [4] is: 10 μM ATP, read-out: Biological Assay 1: Bub1 kinase assay median IC50.

The structures appear in SMILES notation. pIC50: −log10 of the molar value. Where two headings read alike, the source gives them in different places.

T1 sequence (O43683 704-1085): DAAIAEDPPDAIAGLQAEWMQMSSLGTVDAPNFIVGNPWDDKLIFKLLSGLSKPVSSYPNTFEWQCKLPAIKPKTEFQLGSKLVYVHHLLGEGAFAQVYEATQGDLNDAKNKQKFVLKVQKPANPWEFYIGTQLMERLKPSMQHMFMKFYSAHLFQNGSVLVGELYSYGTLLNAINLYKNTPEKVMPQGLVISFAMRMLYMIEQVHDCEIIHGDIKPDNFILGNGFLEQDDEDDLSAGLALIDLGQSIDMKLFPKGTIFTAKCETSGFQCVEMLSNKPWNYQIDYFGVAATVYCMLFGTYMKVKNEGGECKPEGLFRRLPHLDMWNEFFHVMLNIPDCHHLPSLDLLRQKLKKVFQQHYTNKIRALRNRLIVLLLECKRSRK

With `CCOc1cc(F)c(Cn2nc(-c3nc4c(c(Nc5ccnc(NC(C)=O)c5)n3)CC(C)(C)CC4)c3ccccc32)c(F)c1` [Example 2-12-69, N-[4-({2-[1-(4-ethoxy-2,6-difluorobenzyl)-1H-indazol-3-yl]-6,6-dimethyl-5,6,7,8-tetrahydroquinazolin-4-yl}amino)pyridin-2-yl]acetamide], the pIC50 in assay [1] (setting [3]) was 8.06; with HeLa it was 5.07; in assay [2], 6.77.

Turning to `CCOc1cc(F)c(Cn2nc(-c3nc(Nc4ccnc(C)n4)cc(-c4ccn(C)n4)n3)c3ccccc32)c(F)c1` [Example 2-12-93, 2-[1-(4-ethoxy-2,6-difluorobenzyl)-1H-indazol-3-yl]-6-(1-methyl-1H-pyrazol-3-yl)-N-(2-methylpyrimidin-4-yl)pyrimidin-4-amine], the pIC50 in assay [1] (setting [3]) was 7.52; in the assay on HeLa, under 5.00; in assay [2], under 5.00.

`COc1cnccc1Nc1nc(-c2nn(Cc3c(F)cc(OCCO)cc3F)c3ccccc23)ncc1C` [Example 2-6-34, 2-{3,5-difluoro-4-[(3-{4-[(3-methoxypyridin-4-yl)amino]-5-methylpyrimidin-2-yl}-1H-indazol-1-yl)methyl]phenoxy}ethanol]: the pIC50 in assay [1] (setting [4]) is 8.29; in the assay on HeLa, 5.47; in assay [2] it was 5.96.

Take `CC1(C)CCc2c(nc(-c3nn(Cc4c(F)cc(OCCO)cc4F)c4ccccc34)nc2Nc2ccncc2Cl)C1` [Example 2-6-25, 2-{4-[(3-{4-[(3-chloropyridin-4-yl)amino]-7,7-dimethyl-5,6,7,8-tetrahydroquin-azolin-2-yl}-1H-indazol-1-yl)methyl]-3,5-difluorophenoxy} ethanol]: the pIC50 in assay [1] (setting [3]) was 7.32; with HeLa, 5.12; in assay [2] it was 6.43.

Regarding `COCCOc1cc(F)c(Cn2nc(-c3ncc(C4CCN(CC5CC5)CC4)c(Nc4ccnc(C)n4)n3)c3ccccc32)c(F)c1` [Example 2-20-12, 5-[1-(cyclopropylmethyl)piperidin-4-yl]-2-{1-[2,6-difluoro-4-(2-methoxyethoxy)benzyl]-1H-indazol-3-yl}-N-(2-methylpyrimidin-4-yl)pyrimidin-4-amine], the values for the pIC50 (in assay [1] (setting [3]); in the assay with HeLa; in assay [2]) were 7.51, 5.92 and 7.17, respectively.

With `COc1cnccc1Nc1nc(-c2nn(Cc3c(F)cc(OCCO)cc3F)c3ccccc23)ncc1C1CC1` [Example 2-6-36, 2-{4-[(3-{5-cyclopropyl-4-[(3-methoxypyridin-4-yl)amino]pyrimidin-2-yl}-1H-indazol-1-yl)methyl]-3,5-difluorophenoxy} ethanol], the pIC50 in assay [1] (setting [4]) was 8.02; in the assay on HeLa, 5.47; in assay [2], 6.20.

Turning to `CCOc1cc(F)c(Cn2nc(-c3nc(CN4CCCCC4)cc(Nc4ccncc4)n3)c3ccccc32)c(F)c1` [Example 2-15-7, 2-[1-(4-ethoxy-2,6-difluorobenzyl)-1H-indazol-3-yl]-6-(piperidin-1-ylmethyl)-N-(pyridin-4-yl)pyrimidin-4-amine], the pIC50 in assay [1] (setting [4]) was 8.11; in the assay on HeLa it was 5.46; in assay [2] it was 6.82.

Regarding `CCOc1cc(F)c(Cn2nc(-c3nc(CN4CCOCC4)cc(Nc4ncncc4C)n3)c3ccccc32)c(F)c1` [Example 2-12-38, 2-[1-(4-ethoxy-2,6-difluorobenzyl)-1H-indazol-3-yl]-N-(5-methylpyrimidin-4-yl)-6-(morpholin-4-ylmethyl)pyrimidin-4-amine], the pIC50 in assay [1] (setting [3]) was 5.52; in the assay with HeLa, 5.06; in assay [2], 6.96.

Regarding `CCOc1cc(F)c(Cn2nc(-c3nc4c(c(Nc5ccncc5)n3)CN(CC)CC4)c3ccccc32)c(F)c1` [Example 2-15-1, 2-[1-(4-ethoxy-2,6-difluorobenzyl)-1H-indazol-3-yl]-6-ethyl-N-(pyridin-4-yl)-5,6,7,8-tetrahydropyrido[4,3-d]pyrimidin-4-amine], the results for the pIC50 (in assay [1] (setting [3]); in the assay on HeLa; in assay [2]) were 8.07, under 5.00 and 7.16, respectively.
